Reference: patent publication US9212202B2, “Methods of peptide modification” (Lytix Biopharma AS, priority 2007, dated 2015)
Converted amounts (≈) assume the structure as drawn. Peptide text beside a SMILES is read from it. * marks the point of attachment. NHPhenethyl = c1ccc(CCN*)cc1; NHBn = c1ccc(CN*)cc1

Legend:
[1] = biological target: trypsin (Bos taurus, UniProt P00760); assay: in vitro; settings: bovine, isolated trypsin from bovine pancreas, pH 8.6
Description: Essentially salt-free trypsin from bovine pancreas, (T8802, 10000-15000 BAEE units/mg protein) was supplied by Sigma-Aldrich.
Each peptide was dissolved in a 0.1 M NH4HCO3 buffer (pH 6.5) to yield a final peptide concentration of 1 mg/ml. A trypsin solution was prepared by dissolving 1 mg of trypsin in 50 ml 0.1 M NH4HCO3 buffer (pH 8.2). For the stability determination, 250 μl freshly made trypsin solution and 250 μl peptide solution were incubated in 2 ml of 0.1 M NH4HCO3 buffer (pH 8.6) at 37° C. on a rocking table. Aliquots of 0.5 ml were sampled at different time intervals, diluted with 0.5 ml water:acetonitrile (60:40 v/v) containing 1% TFA and analysed by RP-HPLC as described above. Samples without trypsin addition taken at 0 h and after 20 h at 37° C. were used as negative controls. […] The plotted kinetic profiles were made on GraphPad Prism 4c.
The identity of the metabolites from the tryptic degradation was either determined by preparative trypsin degradation of the peptide, purification and structural determination by ESMS, or by chemical synthesis of authentic reference samples.

[2] = tested on: E. coli; assay: Minimal inhibitory concentration; type: cell-based
Description: (§1) A further compound was prepared according to the methods of the invention and Minimal Inhibitory Concentration (MIC) values obtained against a range of bacteria. • H-Arg-Tbt-Arg-NH(CH2)2 (2-Br-phenyl) Saponification of Boc-Arg-Tbt-Arg-OMe
(§2) Minimal inhibitory concentration (mg/l),

[3] = tested on: MRSA; assay: Minimal inhibitory concentration; type: cell-based
Description: as §1, §2

[4] = tested on: S. aureus; assay: Minimal inhibitory concentration; type: cell-based
Description: as §1, §2

[5] = tested on: Str. pyogenes; assay: Minimal inhibitory concentration; type: cell-based
Description: as §1, §2

Sequence of trypsin (P00760 24-246): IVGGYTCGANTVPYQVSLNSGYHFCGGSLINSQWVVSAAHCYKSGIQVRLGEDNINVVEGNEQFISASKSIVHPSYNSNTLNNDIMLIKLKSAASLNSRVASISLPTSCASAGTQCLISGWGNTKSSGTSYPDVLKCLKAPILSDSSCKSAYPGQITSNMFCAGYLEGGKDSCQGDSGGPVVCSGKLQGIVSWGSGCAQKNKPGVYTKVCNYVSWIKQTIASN

| SMILES | half-life at 0.1 mg/ml [1] [h] | Minimal inhibitory concentration [2] [µg/mL] | Minimal inhibitory concentration [3] [µg/mL] | Minimal inhibitory concentration [4] [µg/mL] | Minimal inhibitory concentration [5] [µg/mL] |
| --- | --- | --- | --- | --- | --- |
| N=C(N)NCCC[C@H](NC(=O)[C@H](Cc1c[nH]c2ccccc12)NC(=O)[C@@H](N)CCCNC(=N)N)C(=O)NCc1ccccc1 [E] (H-Arg-Trp-Arg-NHBn) | 1 |  |  |  |  |
| CC(C)(C)c1cc(C(C)(C)C)c2[nH]c(C(C)(C)C)c(C[C@H](NC(=O)[C@@H](N)CCCNC(=N)N)C(=O)N[C@@H](CCCNC(=N)N)C(=O)NCCc3ccccc3Br)c2c1 [—(CH2)2-(2-BrPh), H-Arg-Tbt-Arg-NH(CH2)2 (2-Br-phenyl)] |  | 6 (≈ 6.92 µM) | 3 (≈ 3.46 µM) | 3 (≈ 3.46 µM) | 3 (≈ 3.46 µM) |
| N=C(N)NCCC[C@H](NC(=O)[C@H](Cc1c[nH]c2ccccc12)NC(=O)[C@@H](N)CCCNC(=N)N)C(=O)NCCc1ccccc1 [F] (H-Arg-Trp-Arg-NHPhenethyl) | 7 |  |  |  |  |
